Assay results taken from PubChem BioAssay (NCI).
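Dose response: 5 concentrations. Exposure: 48 h. Format: 96-well plates. Endpoint: linear interpolation; highest concentration if not reached. GI50: concentration for 50% inhibition of growth. Definition used: TGI = concentration required for complete inhibition of growth.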

How the values were obtained:
Test in all cases: NCI anticancer screen, dose series, 48 h
786-0 renal = tested on: 786-0 renal
COLO 205 colon = tested on: COLO 205 colon
HCT-15 colon = tested on: HCT-15 colon
HL-60(TB) leukemia = tested on: HL-60(TB) leukemia
HT29 colon = tested on: HT29 colon
SF-539 CNS = tested on: SF-539 CNS
SK-OV-3 ovarian = tested on: SK-OV-3 ovarian
TK-10 renal = tested on: TK-10 renal
UACC-62 melanoma = tested on: UACC-62 melanoma
UO-31 renal = tested on: UO-31 renal

SMILES	TGI (786-0 renal) [µM]	TGI (COLO 205 colon) [µM]	TGI (HCT-15 colon) [µM]	TGI (HL-60(TB) leukemia) [µM]	TGI (HT29 colon) [µM]	TGI (SF-539 CNS) [µM]	TGI (SK-OV-3 ovarian) [µM]	TGI (TK-10 renal) [µM]	TGI (UACC-62 melanoma) [µM]	TGI (UO-31 renal) [µM]	GI50 (786-0 renal) [µM]	GI50 (COLO 205 colon) [µM]	GI50 (HCT-15 colon) [µM]	GI50 (HL-60(TB) leukemia) [µM]	GI50 (HT29 colon) [nM]	GI50 (SF-539 CNS) [µM]	GI50 (SK-OV-3 ovarian) [µM]	GI50 (TK-10 renal) [µM]	GI50 (UACC-62 melanoma) [µM]	GI50 (UO-31 renal) [µM]
CCOC(=O)C1=C(C)N(NC(=O)Nc2ccccc2)C2(N)N(NC(=O)Nc3ccccc3)C(C)=C(C(=O)OCC)C12C(=O)OCC (stereo not given)	> 100	3.25	> 100	> 100	> 100	53.4	> 100	> 100	> 100	> 100										
COc1ccccc1NC(=O)c1cc2cc(Br)ccc2cc1O	11.2	15.8	8.54	> 22.1	21.5	7.34	6.08	15.3	8.23	7.85	3.52	4	2.37	2.14	7730	2.34	1.75	4.31	1.7	1.57
CC(C)(C)[Si](C)(C)OC1[C@@H](O[Si](C)(C)C(C)(C)C)[C@@H](CNC(=O)NC(=O)C(F)(F)F)O[C@H]1n1cnc2c(NC(=O)Nc3ccccc3)ncnc21 (stereo not given in full)	13.4	12.8	9.12	26.4	11.1	13.2	15.7	17.2	15.9	15.6	6.58	6.03	2.94	9.3	4330	6.74	8.74	9.77	7.45	7.68
CN1C(=O)C(=O)N2c3ccc(Cl)cc3C3(c4ccccc4)N=CC12O3 (stereo not given)	28.9	15	13.3	6.26	16.1	14.6	21.7	18.1	15.3	18.1										
O=C(/C=C/c1c(O)ccc2ccccc12)c1ccc([N+](=O)[O-])cc1	> 55.6	> 72.5	> 66.8	48.6	> 100	> 90.8	> 100	> 96.4	33.3	> 61.7										
O=C(Nc1nn2c(-c3cc(C(F)(F)F)cc(C(F)(F)F)c3)nnc2s1)C1CCCC1	> 32.8	2.86	> 100	1.75	> 32.5	> 100	45.8	> 100		5.57	0.663	1.49	0.665	0.407	1110	0.981	1.76	1.79	0.253	0.402
COC(=O)c1cc2oc(/C=C3/SC(=S)N(NC(C)=O)C3=O)cc2n1C	42.6	> 100	58.5	> 100	> 100	29.1		97.4	35	92.7	20.1	22.4	14.9	38.3	27200	12.9		26	14.7	14.5
O=C(Nc1nc(=S)[nH][nH]1)C(=O)C(C(=O)c1ccc2ccccc2c1)C1OC(=O)c2ccccc21 (stereo not given)	49.5	34.5	78.5		> 100	25.2	> 100	80.3	30.2	30.5										
O=C(NC1C=CCC2C(=O)N(c3ccccc3)C(=O)C12)OCc1ccccc1 (stereo not given)	> 100	> 100		> 100	> 100	> 100	> 100	> 100	> 100	> 100										
O=C(O)CSc1n[nH]c(-c2ccccc2O)n1	> 100		> 100	> 100	> 100	> 100		> 100	> 100	> 100										
Fc1cc(-c2nnc3n2N=C(c2ccc(Cl)cc2)CS3)c(Cl)cc1Cl	3.55	49.1	13.8	> 100		11.1	51.5	11.2	14.9	> 20.5	2.08	7.08	4.82	0.96	2710	3.35	22.5	3.09	4.3	2.99
CC(=O)[O-].CC(=O)[O-].O=C(N/N=C/c1cc(Cl)cc(Cl)c1O)c1ccncc1.[Cu+2]	> 100	> 100	> 100	> 100	> 100	> 100	> 100	> 100	> 100	> 100										
Cc1cc2c(cc1C)[n+](=O)c(C(=O)c1ccccc1)c(C(F)F)n2[O-]	> 100	35.5	> 100	18.9	> 100	72.5	> 100	> 100	96.9	> 100	32	9.83	6.76	3.3	17200	18.4	54.5	38	18.4	19.2
CCCCCCCCCCCCNC(=S)OC	29.3		27.7	27.9	32.8	30.9	35	34.5	30.7	17.8										
COc1ccc2c(c1)[n+]([O-])c(C(N)=O)c(N)[n+]2[O-]	> 100	46.2	> 100	> 100	> 100	> 100	> 100			> 100										
CN(C)CC(O)c1ccc(/C=C/c2ccc(Cl)cc2)cc1 (stereo not given)	2.99	3.17	3.32	2.7		3.84	26.5		3.02	2.61	1.63	1.71	1.62	1.11		1.82	13		1.62	1.3
CN1CCN(c2ccc(Nc3ncc(Cl)c(NC[C@@H]4CCCO4)n3)cc2)CC1	15.1	2.96	> 100	4.76	> 100	4.22	63.8	8.39	10.5		1.68	0.547	2.04	1.48	1720	1.52	2.63	1.75	1.95	
CN(C)C(=S)/N=c1\ssc(=S)n1C1CCCCC1	31.6		> 100	32.5	> 100	48.3	> 100	> 100	34.2	> 100										
Cc1ccc(-c2nc(N3CCNCC3)c3oc(-c4ccc(C)cc4)nc3n2)cc1	3.24	4.11	3.28	3.26	3.42		> 59.2	14	28.6	3.57	1.69	1.98	1.72	1.17	1880		> 43.2	5.43	13.3	1.76

SMILES	TGI (786-0 renal) [µM]	TGI (COLO 205 colon) [µM]	TGI (HCT-15 colon) [µM]	TGI (HL-60(TB) leukemia) [µM]	TGI (HT29 colon) [µM]	TGI (SF-539 CNS) [µM]	TGI (SK-OV-3 ovarian) [µM]	TGI (TK-10 renal) [µM]	TGI (UACC-62 melanoma) [µM]	TGI (UO-31 renal) [µM]	GI50 (786-0 renal) [µM]	GI50 (COLO 205 colon) [µM]	GI50 (HCT-15 colon) [µM]	GI50 (HL-60(TB) leukemia) [µM]	GI50 (HT29 colon) [nM]	GI50 (SF-539 CNS) [µM]	GI50 (SK-OV-3 ovarian) [µM]	GI50 (TK-10 renal) [µM]	GI50 (UACC-62 melanoma) [µM]	GI50 (UO-31 renal) [µM]
COc1cc2c(cc1OC)-c1cc(OC)c(OC)cc1C(CN(C)C)C2 (stereo not given)	> 10		> 10	> 10	> 10	> 10	> 10	> 10	> 10	> 10	> 10		> 10	> 10	> 10000	> 10	> 10	> 10	> 10	> 10
N#CC(C(=O)CCC(=O)Nc1ccc(Cl)c(Cl)c1)c1ccccc1 (stereo not given)	> 100		> 100	> 100	> 100	> 100			> 100	> 100										
COc1ccc(/C=C/COC(C)=O)cc1OC	> 100	> 100	> 100		> 100	> 100	> 100	> 100	> 100	> 100										
CC(=O)OC1(C)N=NC2(CCCCC2)O1 (stereo not given)	> 100	> 100	> 100	> 100	> 100	> 100	> 100	> 100	> 100											
CN(C)c1ccc(/C=N/NC(=S)Nc2ccccc2)cc1	> 100	> 100	> 100		> 100	> 100	> 100	> 100	> 100	> 100										
CC#Cc1ccc(-c2ccccc2)s1	> 100	> 100	> 100	> 100	> 100	> 100		> 100	> 100	> 100										
C=C(C)C12OC1[C@@]1(C)C(=CC2=O)CCC(O)[C@@H]1C (stereo not given in full)	13.4	6.5	> 100	4.26	3.89	15.8		> 100	75.4	41.9										
CCCOc1nc(N)c2cnn(C3CCCCO3)c2n1 (stereo not given)	> 100	> 100	> 100	> 100	> 100	> 100	> 100		> 100	> 100										
CN(C)C=Nc1nc(=O)n(C2CCC(CO)O2)cc1F (stereo not given)	> 100	> 100	> 100	> 100	> 100		> 100	> 100		> 100										
C#Cc1cccc(Nc2nc3cc([N+](=O)[O-])ccc3nc2Nc2ccc(O)cc2)c1	3.43	3.71		5.63	3.42	3.29	5.97		2.99	3.12	1.59	1.9		2.42	1710	1.75	2.34		1.62	1.53
CCC(C)SC1SCC2C(=O)N(C)C3(CC3C)C(=O)OCC(NC(=O)c3nc4ccccc4cc3O)C(=O)NC(C)C(=O)N(C)C1C(=O)N(C)C1(CC1C)C(=O)OCC(NC(=O)c1nc3ccccc3cc1O)C(=O)NC(C)C(=O)N2C (stereo not given)	1.3	0.000194	0.0538	0.00488	0.00788	0.000317			5.01e-05	0.0127					0.0148			0.000654		
CN(C)CC1CCC/C1=N/OC(=O)c1ccccc1 (stereo not given)	> 100	> 100	> 100		> 100	> 100	> 100	> 100	> 100	> 100										
O=c1c2cccnc2ncn1CCN1CCCCC1	> 100	> 100			> 100	> 100	> 100	> 100	> 100	> 100										
N#CCCC[Si]12OCCN(CCO1)CCO2	> 100	> 100		> 100	> 100	> 100	> 100	> 100	> 100	> 100										
Clc1ccc2cccc3c2c1C1OC3c2ccccc21 (stereo not given)	> 100	> 100		> 100	> 100	> 100	> 100	> 100	> 100	> 100										
CC(=O)Nc1cc2ccc(=O)oc2cc1Cl	> 100	> 100	> 100	> 100	> 100	> 100			> 100	> 100										
Cc1nnc2ccnn2c1C	> 100	> 100	> 100	> 100			> 100	> 100	> 100	> 100	> 100	> 100	> 100	> 100			> 100	> 100	> 100	> 100
C=C(C)C(=O)O[C@@H]1C[C@@]2(C)O[C@@H]2C[C@H](O)/C(C)=C/[C@H]2OC(=O)C(=C)[C@@H]21	> 100	> 100	> 100		> 100	> 100	> 100	> 100	> 100											
